Data taken from PubChem BioAssay AID1963436 (Molecular Pharmacology Branch, DTP, NCI, 2024).

Test system: OVCAR-5 complex spheroid (HUVEC/MSC), viability % T/C
Assay: Anticancer human tumor OVCAR-5 cell line growth inhibition [Asc];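 further: spheroids exposed to agents for 7 days before readout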;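 on viability, T/C: 100% = DMSO vehicle-treated wells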
Conditions: for IC50: curve of first compound; for viability, T/C: stronger effect = lower value
Description: Multicellular complex tumor spheroid response to apoptosis pathway targeting inhibitors Alrizomadlin, Pelcitoclax, and Dasminapant in combination with a variety of drugs and investigational agents in selected tumor cell lines
The MDM2 inhibitor alrizomadlin, the Bcl-2/Bcl-xL inhibitor pelcitoclax, and the IAPs inhibitor dasminapant were evaluated both individually and in combination with standard of care and investigational anticancer small molecules within a complex spheroid model of solid tumors. . Complex spheroids include a stromal component modeled by human endothelial cells (HUVEC) and fibroblasts modeled by human mesenchymal stem cells (MSCs). The concentration ranges selected for each drug and investigational agent were based upon clinically achievable concentrations if the clinical Cmax of the agent was known.
Compounds. The drugs and investigational agents: alrizomadlin (APG-115; NSC831270), pelcitoclax (APG-1252; NSC835773), dasminapant (APG-1387;NSC834197), TAK-243 (NSC785004), copanlisib (NSC809693), olaparib (NSC753686), talazoparib (NSC767125), cobimetinib (NSC 768068), eltanexor (KPT-8602, NSC 794443), abemaciclib (NSC 768073), sotorasib (NSC818433), adagrasib (NSC 831453), MRTX-1133 (NSC 836407), Iadademestat (ORY1001, NSC 806812), and RMC-4630 (NSC839698), were obtained from the NCI Developmental Therapeutics Program Chemical Repository. The FDA-approved anticancer drug set is available from the Developmental Therapeutics Program at https://dtp.cancer.gov/organization/dscb/obtaining/available plates.htm. […] The stock solutions were prepared in dimethyl sulfoxide (DMSO, Sigma-Aldrich, St. Louis, MO, cat. D2650) at 800-fold the tested concentration and stored at -70 degrees C prior to their use. All drugs and investigational agents were tested over a range starting from a high concentration at or near the clinical Cmax and decreasing in half-log increments. If the clinical Cmax for an agent had not been determined, the highest concentration tested was 10 microM.
The patient-derived cancer (PDC) cell lines include five colon adenocarcinomas: 186277-243-T-J2-PDC, 616215-338-R-J1-PDC, 439559-082-T-J2-PDC, 463943-066-T-J2-PDC, and 519858-162-T-J1-PDC; three pancreatic carcinomas: 323965-272-R-J2-PDC, 521955-158-R6-J3-PDC, and 521955-158-R2-J5-PDC; two uterine sarcomas: 327498-152-R-J2-PDC and 993429-296-R-J1-PDC; two rhabdomyosarcomas: 755483-174-R-J1-PDC and 772245-204-R-J1-PDC; two soft tissue sarcomas: 126254-015-R-J1-PDC and 494315-158-R-J1-PDC; two malignant fibrous histiocytomas: 317291-083-R-J1-PDC and 596521-263-R-J1-PDC; two breast carcinomas: 171881-019-R-J1-PDC and 885512-296-R-J2-PDC; and one ovarian carcinoma: 6556581-035-R-J-PDC were obtained from the NCI PDMR, (https://pdmr.cancer.gov). The established cell lines HSSY-2 synovial sarcoma (RRID:CVCL 8719), SYO-1 synovial sarcoma (RRID:CVCL_7146), MPNST malignant peripheral neural sheath tumor were obtained from the Sloan Kettering Institute. The following established cell lines were purchased from the American Type Culture Collection (ATCC, Manassas, VA), Sor the received from the NCI repository:, PANC-1 pancreatic carcinoma (CRL-1469, RRID:CVCL_0480), OVCAR-5 ovarian carcinoma (RRID:CVCL_1628), OVCAR-8 ovarian carcinoma (RRID:CVCL_1629), , MCF-7 breast carcinoma (CRL-12584, RRID:CVCL_0031), MDA-MB-231 breast carcinoma (CRL-12532, RRID:CVCL_0062), NCI-H1876 small cell lung carcinoma (CRL-5902, RRID:CVCL_1503), NCI-H510A small cell lung carcinoma (HTB-184, RRID:CVCL_1565), NCI-H1417 (CRL-5869, RRID:CVCL_1469), and NCI-H196 small cell lung carcinoma (CRL-5823, RRID:CVCL_1509). Dr. Peter Houghton (Greehey Children's Cancer Research Institute, University of Texas Health Science Center, San Antonio, TX) provided Rh-18 rhabdomyosarcoma (RRID:CVCL_1659). Pooled donor human umbilical vein endothelial cells (HUVEC, Lonza, cat. CC-2519) and human mesenchymal stem cells (hMSC, Lonza, cat. PT-2501) were purchased from Lonza (Walkersville, MD).
Cell Culture. […]

NC1CCC(NC2CC2c2ccccc2)CC1 (stereo not given) + Cc1c(S(C)(=O)=O)c(-c2cc(F)cc(N3CCN(c4ccc(NS(=O)(=O)c5ccc(NC(CCN6CCC(C(=O)OCCCP(=O)(O)O)CC6)CSc6ccccc6)c(S(=O)(=O)C(F)(F)F)c5)cc4)CC3)c2)c(-c2ccc(Cl)cc2)n1C(C)C
IC50 (second compound 0.1 µM): > 100 nM
IC50 (second compound 0.316 µM): > 100 nM
IC50 (second compound 1 µM): > 100 nM
IC50 (second compound 3.16 µM): > 100 nM
IC50 (second compound 10 µM): > 100 nM
viability, T/C (second compound 0.1 µM, first compound 0.000316 µM): 86%
viability, T/C (second compound 0.1 µM, first compound 0.001 µM): 103%
viability, T/C (second compound 0.1 µM, first compound 0.00316 µM): 89.5%
viability, T/C (second compound 0.1 µM, first compound 0.01 µM): 94.1%
viability, T/C (second compound 0.1 µM, first compound 0.0316 µM): 103%
viability, T/C (second compound 0.1 µM, first compound 0.1 µM): 92.3%
viability, T/C (second compound 0.316 µM, first compound 0.000316 µM): 87.9%
viability, T/C (second compound 0.316 µM, first compound 0.001 µM): 95.6%
viability, T/C (second compound 0.316 µM, first compound 0.00316 µM): 85%
viability, T/C (second compound 0.316 µM, first compound 0.01 µM): 81.9%
viability, T/C (second compound 0.316 µM, first compound 0.0316 µM): 90.3%
viability, T/C (second compound 0.316 µM, first compound 0.1 µM): 93.1%
viability, T/C (second compound 1 µM, first compound 0.000316 µM): 94.7%
viability, T/C (second compound 1 µM, first compound 0.001 µM): 94.2%
viability, T/C (second compound 1 µM, first compound 0.00316 µM): 90.7%
viability, T/C (second compound 1 µM, first compound 0.01 µM): 81%
viability, T/C (second compound 1 µM, first compound 0.0316 µM): 92.4%
viability, T/C (second compound 1 µM, first compound 0.1 µM): 86.3%
viability, T/C (second compound 3.16 µM, first compound 0.000316 µM): 94.9%
viability, T/C (second compound 3.16 µM, first compound 0.001 µM): 95.5%
viability, T/C (second compound 3.16 µM, first compound 0.00316 µM): 83.7%
viability, T/C (second compound 3.16 µM, first compound 0.01 µM): 76%
viability, T/C (second compound 3.16 µM, first compound 0.0316 µM): 93.2%
viability, T/C (second compound 3.16 µM, first compound 0.1 µM): 87.8%
viability, T/C (second compound 10 µM, first compound 0.000316 µM): 115%
viability, T/C (second compound 10 µM, first compound 0.001 µM): 110%
viability, T/C (second compound 10 µM, first compound 0.00316 µM): 120%
viability, T/C (second compound 10 µM, first compound 0.01 µM): 107%
viability, T/C (second compound 10 µM, first compound 0.0316 µM): 104%
viability, T/C (second compound 10 µM, first compound 0.1 µM): 112%
